Laboratory results reported in US8183001B2 (priority 2006, dated 2012).

What was measured:
QF-R [1] = molecular target: QF-R (Caenorhabditis elegans, UniProt G5ECD3, N259Q/N305R/V261F); format: cell-based, C. elegans; conditions: QF-R; at EC50 GABA
Method: (§1) Electrophysiology: Plasmids containing wild-type and mutagenized GABAA receptor subunits were linearized and transcribed in vitro using T3 RNA polymerase (mMessage mMachine T3 kit, Ambion, Austin Tex.). UNC-49B mRNA was injected into Xenopus laevis oocytes at 0.5 μg/μl either alone, or in a mixture with 0.5 μg/μl UNC-49C. […] The injection volume ranged between 27.6 nl to 50.6 nl. […] Cells were voltage clamped at −60 mV. All recordings were performed at room temperature.
(§2) The conserved residues were tested in the UNC-49C M1 domain in a similar way. […] To test the importance of these conserved residues, they were substituted into an UNC-49B subunit with the linker mutation N305R to create the ‘QF-R’ subunit (FIG. 3c).

QF-R [2] = format: cell-based, C. elegans
Method: as §1, §2

X(V273I) = X(V273I) (Caenorhabditis elegans, UniProt G5ECD3, I262F/M258L/N259Q/N305R/S264A/T257F/V261F/V273I); format: cell-based, C. elegans; conditions: at EC50 GABA
Method: as §1

TM chimera = TM chimera (Caenorhabditis elegans, UniProt G5ECD3+G5EE10); format: cell-based, C. elegans; conditions: TM chimera homomer; 5 μM PS
Chain of TM chimera (G5EE10 256-448, change not shown, one chain of several): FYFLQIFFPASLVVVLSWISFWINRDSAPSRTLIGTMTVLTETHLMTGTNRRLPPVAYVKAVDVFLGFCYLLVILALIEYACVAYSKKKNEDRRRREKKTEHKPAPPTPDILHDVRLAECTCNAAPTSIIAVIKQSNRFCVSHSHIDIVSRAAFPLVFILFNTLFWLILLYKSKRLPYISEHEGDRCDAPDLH
Method: as §1

M1-M2-linker chimera = M1-M2-linker chimera (Caenorhabditis elegans, UniProt G5ECD3+G5EE10); format: cell-based, C. elegans; conditions: 5 μM PS, 100 μM GABA
Chain of M1-M2-linker chimera (G5EE10 256-315, change not shown, one chain of several): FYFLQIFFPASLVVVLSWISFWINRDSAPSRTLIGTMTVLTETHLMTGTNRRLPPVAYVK
Method: as §1
(§3) The strategy represents a deletion of UNC-49C material from the carboxy to amino terminal end of the transmembrane portion of the subunit, which is then replaced with UNC-49B sequences.

UNC-49B/C heteromer = UNC-49B/C heteromer (Caenorhabditis elegans, UniProt G5ECD3+G5EE10); format: cell-based; conditions: UNC-49B/C heteromer
Chain of UNC-49B/C heteromer (G5EE10 entry or part of it, one chain of several): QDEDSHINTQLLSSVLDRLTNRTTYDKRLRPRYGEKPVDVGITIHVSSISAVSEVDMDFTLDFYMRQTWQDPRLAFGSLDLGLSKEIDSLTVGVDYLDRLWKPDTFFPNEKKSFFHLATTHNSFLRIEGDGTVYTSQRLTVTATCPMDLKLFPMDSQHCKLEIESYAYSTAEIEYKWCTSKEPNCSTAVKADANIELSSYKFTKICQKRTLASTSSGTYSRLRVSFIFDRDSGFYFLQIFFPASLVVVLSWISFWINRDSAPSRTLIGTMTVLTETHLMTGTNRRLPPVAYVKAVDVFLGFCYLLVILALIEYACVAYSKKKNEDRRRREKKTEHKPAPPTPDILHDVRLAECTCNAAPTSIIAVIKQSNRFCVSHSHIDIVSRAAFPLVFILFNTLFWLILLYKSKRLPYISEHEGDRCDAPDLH
Method: as §1

M1-M2 chimera = M1-M2 chimera (Caenorhabditis elegans, UniProt G5ECD3+G5EE10); assay: Xenopus oocyte two electrode voltage-clamp, GABA-evoked currents; format: cell-based, C. elegans; conditions: 5 μM PS, 1000 μM GABA, versus M1-M2-linker chimera
Chain of M1-M2 chimera (G5EE10 256-304, change not shown, one chain of several): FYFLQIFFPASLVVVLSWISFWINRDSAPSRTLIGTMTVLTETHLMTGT
Method: as §1, §3

Y(S264A) = Y(S264A) (Caenorhabditis elegans, UniProt G5ECD3, I265S/I267V/I270L/N259Q/N305R/S264A/T269V/V261F/V273I); format: cell-based, C. elegans; conditions: at EC50 GABA
Method: as §1
(§4) Important residues in the X segment were tested by substituting UNC-49C residues into the Y chimera. […] These divergent X segment residues were tested by mutating them from UNC-49B to UNC-49C amino acids in the Y chimera background.

Y(T257F/S264A) = Y(T257F/S264A) (Caenorhabditis elegans, UniProt G5ECD3, I265S/I267V/I270L/N259Q/N305R/S264A/T257F/T269V/V261F/V273I); format: cell-based, C. elegans
Method: as §1, §4

Y(T257F/M258L/S264A) = Y(T257F/M258L/S264A) (Caenorhabditis elegans, UniProt G5ECD3, I265S/I267V/I270L/M258L/N259Q/N305R/S264A/T257F/T269V/V261F/V273I); format: cell-based, C. elegans; conditions: at EC50 GABA
Method: as §1, §4

Y(T257F/M258L) = Y(T257F/M258L) (Caenorhabditis elegans, UniProt G5ECD3, I265S/I267V/I270L/M258L/N259Q/N305R/T257F/T269V/V261F/V273I); format: cell-based, C. elegans; conditions: at EC50 GABA
Method: as §1, §4

Y(T257F) = Y(T257F) (Caenorhabditis elegans, UniProt G5ECD3, I265S/I267V/I270L/N259Q/N305R/T257F/T269V/V261F/V273I); format: cell-based, C. elegans
Method: as §1, §4

Y(M258L/S264A) = molecular target: T1, Y(M258L/S264A) (Caenorhabditis elegans, UniProt G5ECD3, I265S/I267V/I270L/M258L/N259Q/N305R/S264A/T269V/V261F/V273I); format: cell-based, C. elegans; conditions: M258L/S264A mutant; median of 1000 bootstrap trials
T1 sequence (G5ECD3 23-506 M258L/N259Q/V261F/S264A/I265S/I267V/T269V/I270L/V273I/N305R): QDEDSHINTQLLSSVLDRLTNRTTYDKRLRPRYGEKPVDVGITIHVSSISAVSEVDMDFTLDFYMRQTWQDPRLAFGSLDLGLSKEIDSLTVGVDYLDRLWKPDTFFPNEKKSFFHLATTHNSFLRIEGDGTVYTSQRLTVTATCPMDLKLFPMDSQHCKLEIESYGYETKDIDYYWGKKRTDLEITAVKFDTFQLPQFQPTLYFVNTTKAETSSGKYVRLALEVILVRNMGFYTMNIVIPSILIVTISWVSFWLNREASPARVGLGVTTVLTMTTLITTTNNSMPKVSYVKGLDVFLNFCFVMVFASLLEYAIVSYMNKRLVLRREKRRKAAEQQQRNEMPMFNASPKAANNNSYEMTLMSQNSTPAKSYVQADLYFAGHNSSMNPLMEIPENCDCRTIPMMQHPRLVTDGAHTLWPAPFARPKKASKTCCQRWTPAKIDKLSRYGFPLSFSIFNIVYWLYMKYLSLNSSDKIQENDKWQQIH
Method: as §1
(§5) Error bars in the figures are standard error of the mean. All drugs were obtained from Sigma (St. Louis). […] Picrotoxin was prepared as a 100 mM stock in DMSO.
as §4

Y(M258L) = molecular target: T2, Y(M258L) (Caenorhabditis elegans, UniProt G5ECD3, I265S/I267V/I270L/M258L/N259Q/N305R/T269V/V261F/V273I); format: cell-based, C. elegans; conditions: M258L mutant; median of 1000 bootstrap trials
T2 sequence (G5ECD3 23-506 M258L/N259Q/V261F/I265S/I267V/T269V/I270L/V273I/N305R): T1 sequence (G5ECD3 23-506 M258L/N259Q/V261F/S264A/I265S/I267V/T269V/I270L/V273I/N305R)
Method: as §1, §5, §4

[3] = tested on: UNC-49B homomers containing the M1 mutations; assay: Desensitization in oocytes; format: cell-based, C. elegans; conditions: oocytes expressing UNC-49B homomers containing the M1 mutations

pregnenolone sulfate [PS]
PS Slope coefficient (QF-R [1]): 1.5 ± 0.5 (n = 6) | fold more sensitive to PS than N305R (QF-R [2]; QF-R versus N305R): 2.1 fold | fold less sensitive to PS than the double chimera (QF-R [2]; QF-R versus double chimera): 6.7 fold | PS Slope coefficient (X(V273I)): 1.0 ± 0.02 | PS inhibition (TM chimera): strongly inhibited | PS sensitivity (M1-M2-linker chimera): equally sensitive to 5 μM PS as the TM chimera | inhibition of GABA-evoked current (UNC-49B/C heteromer; 100 μM PS, EC50 GABA): 95% | PS Slope coefficient (UNC-49B/C heteromer; at EC50 GABA): 0.9 ± 0.1 (n = 4) | PS sensitivity (M1-M2 chimera): significantly less PS sensitive | PS Slope coefficient (Y(S264A)): 5.3 ± 1.8 | reduction of the holding current by PS alone, relative to EC50 GABA-evoked current (Y(T257F/S264A); T257F/S264A point mutant, 100 μM PS): 6-20% | PS Slope coefficient (Y(T257F/S264A); Y(T257F/S264A), at EC50 GABA): 0.9 ± 0.08 | PS Slope coefficient (Y(T257F/M258L/S264A)): 1.44 ± 0.1 | PS Slope coefficient (Y(T257F/M258L)): 2.3 ± 0.2 | reduction of the holding current by PS alone, relative to EC50 GABA-evoked current (Y(T257F); T257F point mutant, 100 μM PS): 6-20% | PS Slope coefficient (Y(T257F); Y(T257F), at EC50 GABA): 1.3 ± 0.06 | A, amplitude of normalized current above 1 (biphasic fit) (Y(M258L/S264A)): 1.0 | nE, slope coefficient for the enhancement (Y(M258L/S264A)): 1.3 | nI, slope coefficient for the inhibition (Y(M258L/S264A)): 1 .9 | A, amplitude of normalized current above 1 (biphasic fit) (Y(M258L)): 1.56 | nE, slope coefficient for the enhancement (Y(M258L)): 1.0 | nI, slope coefficient for the inhibition (Y(M258L)): 1.8 | effect of PS on desensitization [3]: accelerated desensitization
